Measured values reported in patent US20040115160A1, “Quaternary ammonium esters for disinfection and preservation” (priority 2002, published 2004).
Where a name gives a salt, the structure may show the parent alone. Read-outs that look alike come from different tables or passages of the source.

Tests used:
[1] = tested on: Candida albicans (ATCC 10231); experiment: Stand-alone biocidal test without organic soil; format: cell-based; details: 25 ppm in BBS; for log reduction at 25 ppm: Candida albicans, ATCC10231, without organic soil, read-out: Stand-alone biocidal result (microbial log reduction) C. albicans
Experimental: (§1) A test was conducted to study the microbiocidal efficacy of a solution containing a quaternary ammonium ester of the present invention employing borate buffered saline (BBS). The antimicrobial efficacy of each of the various compositions for the chemical disinfection of contact lenses was evaluated. Microbial challenge inoculums were prepared using Pseudomonas aeruginosa (ATCC 9027), Staphylococcus aureus (ATCC 6538), Serratia marcescens (ATCC 13880), Candida albicans (ATCC 10231) and Fusarium solani (ATCC 36031). The test organisms were cultured on appropriate agar and the cultures were harvested using sterile DPBST (Dulbecco's Phosphate Buffered Saline plus 0.05 percent weight/volume polysorbate 80) or a suitable diluent and transferred to a suitable vessel. Spore suspensions were filtered through sterile glass wool to remove hyphal fragments. Serratia marcescens, as appropriate, was filtered through a 1.2 mμ filter to clarify the suspension. After harvesting, the suspension was centrifuged at no more than 5000×g for a maximum of 30 minutes at 20 to 25° C. The supernatant was poured off and resuspended in DPBST or other suitable diluent. The suspension was centrifuged a second time, and resuspended in DPBST or other suitable diluent. All challenge bacterial and fungal cell suspensions were adjusted with DPBST or other suitable diluent to 1×10^7 to 1×10^8 cfu/ml. The appropriate cell concentration may be estimated by measuring the turbidity of the suspension, for example, using a spectrophotometer at a preselected wavelength, for example 490 nm. One tube was prepared containing a minimum of 10 ml of test solution per challenge organism. Each tube of the solution to be tested was inoculated with a suspension of the test organism sufficient to provide a final count of 1×10^5 to 1×10^6 cfu/ml, the volume of the inoculum not exceeding 1 percent of the sample volume. Dispersion of the inoculum was ensured by vortexing the sample for at least 15 seconds. The inoculated product was stored at 10 to 25° C. Aliquots in the amount of 1.0 ml were taken of the inoculated product for determination of viable counts after certain time periods of disinfection. The time points for the bacteria were, for example, 1, 2, 3 and 4 hours when the proposed regimen soaking time was four hours. Yeast and mold were tested at an additional timepoint of 16 hours (4 times the regimen time). The suspension was mixed well by vortexing vigorously for at least 5 seconds. The 1.0 ml aliquots removed at the specified time intervals were subjected to a suitable series of decimal dilutions in validated neutralizing media. The suspensions were mixed vigorously and incubated for a suitable period of time to allow for neutralization of the microbial agent at room temperature. The viable count of organisms was determined in appropriate dilutions by preparation of triplicate plates of trypticase soy (TSA) agar for bacteria and Sabouraud dextrose agar (SDA) for mold and yeast. The bacterial recovery plates were incubated at 30 to 35° C. for two to four days. The yeast was incubated at 20 to 30° C. for two to four days and mold recovery plates were incubated at 20 to 25° C. for three to seven days. The average number of colony forming units was determined on countable plates. Countable plates refer to 30 to 300 cfu/plates for bacteria and yeast, and 8 to 80 cfu/plate for mold except when colonies are observed only for the 10^0 or 10^−1 dilution plates. The microbial reduction was then calculated at the specified time points. […] Following inoculation in a validated neutralizing broth and incubation for an appropriate period of time, the inoculum control must be between 1.0×10^5 to 1.0×10^6 cfu/ml. […]

[2] = tested on: Fusarium solani (ATCC 36031); experiment: Stand-alone biocidal test without organic soil; format: cell-based; details: 25 ppm in BBS; for log reduction at 25 ppm: Fusarium solani, ATCC36031, without organic soil, read-out: Stand-alone biocidal result (microbial log reduction) F. solani
Experimental: as §1

[3] = tested on: Pseudomonas aeruginosa (ATCC 9027); experiment: Stand-alone biocidal test without organic soil; format: cell-based; details: 25 ppm in BBS; for Stand-alone biocidal result (microbial log reduction) P. aeruginosa: without organic soil
Experimental: as §1

[4] = tested on: Serratia marcescens (ATCC 13880); experiment: Stand-alone biocidal test without organic soil; format: cell-based; details: 25 ppm in BBS; for Stand-alone biocidal result (microbial log reduction) S. marcescens: without organic soil
Experimental: as §1

[5] = tested on: Staphylococcus aureus (ATCC 6538); experiment: Stand-alone biocidal test without organic soil; format: cell-based; details: 25 ppm in BBS; for Stand-alone biocidal result (microbial log reduction) S. aureus: without organic soil
Experimental: as §1

| SMILES | melting point [°C] | log reduction at 25 ppm ([1]; 1 hr.) | log reduction at 25 ppm ([1]; 4 hr.) | log reduction at 25 ppm ([2]; 1 hr.) | log reduction at 25 ppm ([2]; 4 hr.) | Stand-alone biocidal result (microbial log reduction) P. aeruginosa ([3]; 1 hr.) | Stand-alone biocidal result (microbial log reduction) P. aeruginosa ([3]; 4 hr.) | Stand-alone biocidal result (microbial log reduction) S. marcescens ([4]; 1 hr.) | Stand-alone biocidal result (microbial log reduction) S. marcescens ([4]; 4 hr.) | Stand-alone biocidal result (microbial log reduction) S. aureus ([5]; 1 hr.) | Stand-alone biocidal result (microbial log reduction) S. aureus ([5]; 4 hr.) | other results |
| --- | --- | --- | --- | --- | --- | --- | --- | --- | --- | --- | --- | --- |
| CCCCCCCCCCCCCC(=O)OCCC[N+](C)(C)CCC (as salt: iodide) [Compound 9, N-myristoyloxypropyl-N,N-dimethyl-N-propylammonium iodide] | 80 to 82 |  |  |  |  |  |  |  |  |  |  |  |
| CCCCCCCCCCCCCC(=O)OCCC[N+](C)(C)C [Compound 5, N-myristoyloxypropyl-N,N,N-trimethylammonium iodide] |  | 1.9 | 3.4 | 3.2 | 3.3 | >4.6 | >4.6 | 3.4 | >4.6 | >4.7 | >4.7 |  |
| CCCCCCCCCCCCCC(=O)OCCC[N+](C)(C)CCCCC (as salt: iodide) [Compound 11, N-myristoyloxypropyl-N,N-dimethyl-N-pentylammonium iodide] | 90 to 91 |  |  |  |  |  |  |  |  |  |  |  |
| CCCCCCCCCCCCCCCCCC(=O)OCCC[N+](C)(C)C (as salt: iodide) [Compound 7, N-stearoyloxypropyl-N,N,N-trimethylammonium iodide] | 116 to 118 |  |  |  |  |  |  |  |  |  |  |  |
| CCCCCCCCCCCCCC(=O)OCCC[N+](C)(C)CCCCCCCCCC (as salt: iodide) [Compound 13, N-myristoyloxypropyl-N-decyl-N,N-dimethylammonium iodide] | 103 to 104 |  |  |  |  |  |  |  |  |  |  |  |
| CCCCCCCCCCCCCC(=O)OCCC[N+](C)(C)CCCCCCCCCC [Compound 13, N-myristoyloxypropyl-N-decyl-N,N-dimethylammonium iodide] |  | 0.5 | 1.2 | 1.5 | 3.1 | 3.5 | 4.7 | TNTC | 2.9 | 3.8 | 4.8 |  |
| CCCCCCCCCCCCCC(=O)OCCOCC[N+](C)(C)C [Compound 15, N-myristoyloxyethoxyethyl-N,N,N-trimethylammonium iodide] |  | 3.6 | 4.6 | 3.8 | 4.1 | >4.7 | >4.7 | 3.8 | >4.8 | >4.8 | >4.8 |  |
| CCCCCCCCCCCCCC(=O)OCCC[N+](C)(C)CCCC (as salt: iodide) [Compound 10, N-myristoyloxypropyl-N-butyl-N,N-dimethylammonium iodide] | 87 to 89 |  |  |  |  |  |  |  |  |  |  |  |
| CCCCCCCCCCCCCC(=O)OCCC[N+](C)(C)CCCCCC (as salt: iodide) [Compound 12, N-myristoyloxypropyl-N,N-dimethyl-N-hexylammonium iodide] | 78 to 79 |  |  |  |  |  |  |  |  |  |  |  |
| CCCCCCCCCCCCCC(=O)OCCC[N+](C)(C)CC (as salt: iodide) [Compound 8, N-myristoyloxypropyl-N,N-dimethyl-N-ethylammonium iodide] | 60 to 62 |  |  |  |  |  |  |  |  |  |  |  |
| CCCCCCCCCCCCCC(=O)OCCC[N+](C)(C)CCCC [Compound 10, N-myristoyloxypropyl-N-butyl-N,N-dimethylammonium iodide] |  | 4.5 | > 4.8 | > 4.5 | > 4.5 | >4.7 | 4.7 | 3.8 | >4.8 | >4.8 | >4.8 |  |
| CCCCCCCCCCCCCC(=O)NCCC[N+](C)(C)C.[I-] [N-myristamidopropyl-N,N,N-trimethylammonium iodide, reference compound] |  |  |  |  |  |  |  |  |  |  |  | Effectiveness against C. albicans (stand-alone biocidal data) [1]: failed; Effectiveness against F. solani (stand-alone biocidal data) [2]: failed; Effectiveness against P. aeruginosa (stand-alone biocidal data) [3]: proved effective; Effectiveness against S. marcescens (stand-alone biocidal data) [4]: failed; Effectiveness against S. aureus (stand-alone biocidal data) [5]: proved effective |
| CCCCCCCCCCCCCCCCCC(=O)OCCC[N+](C)(C)C [Compound 7, N-stearoyloxypropyl-N,N,N-trimethylammonium iodide] |  | 0.7 | 2.5 | 2.9 | 3.5 | 2.0 | 3.3 | TNTC | TNTC | 3.5 | >4.8 |  |
| CCCCCCCCCCCC(=O)OCCC[N+](C)(C)C [Compound 4, N-lauroyloxypropyl-N,N,N-trimethylammonium iodide] |  | 0 | 0.1 | 0.1 | 0.6 | 2.0 | 3.0 | TNTC | TNTC | TNTC | TNTC |  |
| CCCCCCCC(=O)OCCC[N+](C)(C)C [Compound 2, N-capryloyloxypropyl-N,N,N-trimethylammonium iodide] |  | 0 | 0.2 | 0.1 | 0.6 | TNTC | TNTC | TNTC | TNTC | TNTC | TNTC |  |
| CCCCCCCCCCCCCC(=O)OCCCN(C)C [N-myristoyloxypropyl-N,B-dimethylamine, reference compound] |  |  |  |  |  |  |  |  |  |  |  | Effectiveness against C. albicans (stand-alone biocidal data) [1]: failed to be effective; Effectiveness against F. solani (stand-alone biocidal data) [2]: failed to be effective; Effectiveness against P. aeruginosa (stand-alone biocidal data) [3]: failed to be effective; Effectiveness against S. marcescens (stand-alone biocidal data) [4]: failed to be effective; Effectiveness against S. aureus (stand-alone biocidal data) [5]: failed to be effective |
| CCCCCCCCCCCCCC(=O)NCCCN(C)C [N-myristamidopropyl-N,N-dimethylamine, reference compound] |  |  |  |  |  |  |  |  |  |  |  | Effectiveness against C. albicans (stand-alone biocidal data) [1]: effective; Effectiveness against F. solani (stand-alone biocidal data) [2]: effective; Effectiveness against P. aeruginosa (stand-alone biocidal data) [3]: effective; Effectiveness against S. marcescens (stand-alone biocidal data) [4]: not effective; Effectiveness against S. aureus (stand-alone biocidal data) [5]: effective |
